# Measured values taken from PubChem BioAssay AID1963836 (Molecular Pharmacology Branch, DTP, NCI, 2024).
# System: 857933-349-R-J2-PDC complex spheroid viability
# Assay: Anticancer human tumor 857933-349-R-J2-PDC patient-derived colon adenocarcinoma cell line growth inhibition [POLQ]
# Conditions: for IC50: curve of first compound; for viability, T/C: stronger effect = lower value
# Summary of the method: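 Growth inhibition in 3D: complex spheroids (tumor PDC, HUVEC, MSC) treated with POLQ inhibitor combinations; where Cmax unknown, highest tested concentration 10 microM, except SN-38 at 1 microM.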
# [1] = second compound 0.0316 µM, first compound 0.0316 µM
# [2] = second compound 0.0316 µM, first compound 0.1 µM
# [3] = second compound 0.0316 µM, first compound 0.316 µM
# [4] = second compound 0.0316 µM, first compound 1 µM
# [5] = second compound 0.0316 µM, first compound 3.16 µM
# [6] = second compound 0.0316 µM, first compound 10 µM
# [7] = second compound 0.1 µM, first compound 0.0316 µM
# [8] = second compound 0.1 µM, first compound 0.1 µM
# [9] = second compound 0.1 µM, first compound 0.316 µM
# [10] = second compound 0.1 µM, first compound 1 µM
# [11] = second compound 0.1 µM, first compound 3.16 µM
# [12] = second compound 0.1 µM, first compound 10 µM
# [13] = second compound 0.316 µM, first compound 0.0316 µM
# [14] = second compound 0.316 µM, first compound 0.1 µM
# [15] = second compound 0.316 µM, first compound 0.316 µM
# [16] = second compound 0.316 µM, first compound 1 µM
# [17] = second compound 0.316 µM, first compound 3.16 µM
# [18] = second compound 0.316 µM, first compound 10 µM
# [19] = second compound 1 µM, first compound 0.0316 µM
# [20] = second compound 1 µM, first compound 0.1 µM
# [21] = second compound 1 µM, first compound 0.316 µM
# [22] = second compound 1 µM, first compound 1 µM
# [23] = second compound 1 µM, first compound 3.16 µM
# [24] = second compound 1 µM, first compound 10 µM
# [25] = second compound 3.16 µM, first compound 0.0316 µM
# [26] = second compound 3.16 µM, first compound 0.1 µM
# [27] = second compound 3.16 µM, first compound 0.316 µM
# [28] = second compound 3.16 µM, first compound 1 µM
# [29] = second compound 3.16 µM, first compound 3.16 µM
# [30] = second compound 3.16 µM, first compound 10 µM
# [31] = second compound 10 µM, first compound 0.0316 µM
# [32] = second compound 10 µM, first compound 0.1 µM
# [33] = second compound 10 µM, first compound 0.316 µM
# [34] = second compound 10 µM, first compound 1 µM
# [35] = second compound 10 µM, first compound 3.16 µM
# [36] = second compound 10 µM, first compound 10 µM
# 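Further: spheroids exposed to compounds for seven days before readout.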
smiles,measurement,setting,value
C=CC(=O)N1CCN(c2nc(=O)n(-c3c(C)ccnc3C(C)C)c3nc(-c4c(O)cccc4F)c(F)cc23)C(C)C1 (stereo unspecified) + Cc1cccc(N(C)C(=O)C2C(O)CCN2c2nc(C)cc(C(F)(F)F)c2C#N)c1,IC50,second compound 0.0316 µM,> 10 µM
same,IC50,second compound 0.1 µM,> 10 µM
same,IC50,second compound 0.316 µM,> 10 µM
same,IC50,second compound 1 µM,> 10 µM
same,IC50,second compound 3.16 µM,> 10 µM
same,IC50,second compound 10 µM,> 10 µM
same,"viability, T/C",[1],101%
same,"viability, T/C",[2],104%
same,"viability, T/C",[3],94.8%
same,"viability, T/C",[4],113%
same,"viability, T/C",[5],97.2%
same,"viability, T/C",[6],80.5%
same,"viability, T/C",[7],114%
same,"viability, T/C",[8],106%
same,"viability, T/C",[9],73%
same,"viability, T/C",[10],112%
same,"viability, T/C",[11],98.9%
same,"viability, T/C",[12],85.3%
same,"viability, T/C",[13],91.1%
same,"viability, T/C",[14],100%
same,"viability, T/C",[15],109%
same,"viability, T/C",[16],87.4%
same,"viability, T/C",[17],84.4%
same,"viability, T/C",[18],70%
same,"viability, T/C",[19],95.3%
same,"viability, T/C",[20],95.2%
same,"viability, T/C",[21],89.3%
same,"viability, T/C",[22],101%
same,"viability, T/C",[23],113%
same,"viability, T/C",[24],97.9%
same,"viability, T/C",[25],76.5%
same,"viability, T/C",[26],106%
same,"viability, T/C",[27],109%
same,"viability, T/C",[28],84%
same,"viability, T/C",[29],99.8%
same,"viability, T/C",[30],95.2%
same,"viability, T/C",[31],88.7%
same,"viability, T/C",[32],84.2%
same,"viability, T/C",[33],101%
same,"viability, T/C",[34],85.9%
same,"viability, T/C",[35],91.8%
same,"viability, T/C",[36],77.7%
CC(C)n1c(=O)n(C)c2cnc3cc(F)c(-c4ccc(OCCCN5CCCCC5)nc4)cc3c21 + Cc1cccc(N(C)C(=O)C2C(O)CCN2c2nc(C)cc(C(F)(F)F)c2C#N)c1,IC50,second compound 0.0316 µM,> 10 µM
same,IC50,second compound 0.1 µM,> 10 µM
same,IC50,second compound 0.316 µM,> 10 µM
same,IC50,second compound 1 µM,> 10 µM
same,IC50,second compound 3.16 µM,> 10 µM
same,IC50,second compound 10 µM,> 10 µM
same,"viability, T/C",[1],106%
same,"viability, T/C",[2],78.1%
same,"viability, T/C",[3],90.2%
same,"viability, T/C",[4],113%
same,"viability, T/C",[5],107%
same,"viability, T/C",[6],69.8%
same,"viability, T/C",[7],97.7%
same,"viability, T/C",[8],107%
same,"viability, T/C",[9],98.9%
same,"viability, T/C",[10],105%
same,"viability, T/C",[11],87%
same,"viability, T/C",[12],68.5%
same,"viability, T/C",[13],97.2%
same,"viability, T/C",[14],94.3%
same,"viability, T/C",[15],104%
same,"viability, T/C",[16],94.9%
same,"viability, T/C",[17],105%
same,"viability, T/C",[18],88%
same,"viability, T/C",[19],80.7%
same,"viability, T/C",[20],73.8%
same,"viability, T/C",[21],92.6%
same,"viability, T/C",[22],110%
same,"viability, T/C",[23],114%
same,"viability, T/C",[24],66.9%
same,"viability, T/C",[25],83.6%
same,"viability, T/C",[26],89.2%
same,"viability, T/C",[27],116%
same,"viability, T/C",[28],79.3%
same,"viability, T/C",[29],102%
same,"viability, T/C",[30],75%
same,"viability, T/C",[31],73.2%
same,"viability, T/C",[32],65.9%
same,"viability, T/C",[33],87.9%
same,"viability, T/C",[34],97.3%
same,"viability, T/C",[35],106%
same,"viability, T/C",[36],64.5%
CC1COCCN1c1cc(C2(S(C)(=N)=O)CC2)nc(-c2ccnc3[nH]ccc23)n1 (stereo unspecified) + Cc1cccc(N(C)C(=O)C2C(O)CCN2c2nc(C)cc(C(F)(F)F)c2C#N)c1,IC50,second compound 0.0316 µM,3.21 µM
same,IC50,second compound 0.1 µM,3.88 µM
same,IC50,second compound 0.316 µM,2.71 µM
same,IC50,second compound 1 µM,4.38 µM
same,IC50,second compound 3.16 µM,5.54 µM
same,IC50,second compound 10 µM,4.77 µM
same,"viability, T/C",[1],97.9%
same,"viability, T/C",[2],105%
same,"viability, T/C",[3],95%
same,"viability, T/C",[4],78.2%
same,"viability, T/C",[5],50.4%
same,"viability, T/C",[6],36.4%
same,"viability, T/C",[7],88.6%
same,"viability, T/C",[8],112%
same,"viability, T/C",[9],87.4%
same,"viability, T/C",[10],76.3%
same,"viability, T/C",[11],55.2%
same,"viability, T/C",[12],32.5%
same,"viability, T/C",[13],75%
same,"viability, T/C",[14],81.5%
same,"viability, T/C",[15],101%
same,"viability, T/C",[16],69.8%
same,"viability, T/C",[17],48.7%
same,"viability, T/C",[18],35.4%
same,"viability, T/C",[19],92.9%
same,"viability, T/C",[20],91.7%
same,"viability, T/C",[21],102%
same,"viability, T/C",[22],74.8%
same,"viability, T/C",[23],57.4%
same,"viability, T/C",[24],36.6%
same,"viability, T/C",[25],95.5%
same,"viability, T/C",[26],98.2%
same,"viability, T/C",[27],84.4%
same,"viability, T/C",[28],78.8%
same,"viability, T/C",[29],52.3%
same,"viability, T/C",[30],45.8%
same,"viability, T/C",[31],80.1%
same,"viability, T/C",[32],84.7%
same,"viability, T/C",[33],88.6%
same,"viability, T/C",[34],72.5%
same,"viability, T/C",[35],57.4%
same,"viability, T/C",[36],38.2%
